Assay results published in ChEMBL document CHEMBL4017456, “The discovery of tetrahydropyridine analogs as hNav1.7 selective inhibitors for analgesia” (Bioorg Med Chem Lett, 2017).

Key:
in vivo [1] = settings: Sprague-Dawley, rat, plasma, iv, 0.5 mg/kg
in vivo [2] = settings: Sprague-Dawley, rat, plasma, po, 2 mg/kg
in vivo [3] = settings: Sprague-Dawley, rat, iv, 0.5 mg/kg
in vivo [4] = settings: Sprague-Dawley, rat, plasma, iv, 0.5 mg/kg; remark: listed apart in the source
in vivo [5] = settings: Sprague-Dawley, rat, plasma, po, 2 mg/kg; remark: listed apart in the source
[6] = Ratio of drug level in brain to plasma in Sprague-Dawley rat at 0.5 mg/kg, iv or 2 mg/kg, po by LC-MS/MS analysis; format: ADME, organism-based; settings: read-out: BPR
in vivo [7] = settings: Sprague-Dawley, rat, plasma, po, 2 mg/kg; remark: listed apart in the source
in vivo [8] = settings: Sprague-Dawley, rat, iv, 0.5 mg/kg; remark: listed apart in the source
Plasma [9] = assay: Free plasma concentration in Sprague-Dawley rat at 100 mg/kg administered via oral gavage by LC-MS/MS method; format: ADME, organism-based; settings: in vivo
Plasma [10] = assay: Plasma concentration in Sprague-Dawley rat at 100 mg/kg administered via oral gavage by LC-MS/MS method; format: ADME, organism-based; settings: in vivo
[11] = Volume of distribution at steady state in Sprague-Dawley rat plasma at 1 mg/kg, iv administered as single bolus dose by LC-MS/MS analysis; format: ADME, organism-based; settings: read-out: Vdss
[12] = AUC (0 to last) in Sprague-Dawley rat plasma at 1 mg/kg, iv administered as single bolus dose by LC-MS/MS analysis; format: ADME, organism-based; parameters: dose 1 mg/kg, route intravenous, time 0 - last
in vivo [13] = settings: Sprague-Dawley, rat, plasma, po, 10 mg/kg
[14] = Ratio of drug level in brain to plasma in Sprague-Dawley rat at 1 mg/kg, iv or 10 mg/kg, po by LC-MS/MS analysis; format: ADME, organism-based; settings: read-out: BPR
[15] = Clearance in Sprague-Dawley rat at 1 mg/kg, iv administered as single bolus dose by LC-MS/MS analysis; format: ADME, organism-based; settings: in vivo
in vivo [16] = settings: Sprague-Dawley, rat, plasma, po, 10 mg/kg; remark: listed apart in the source
in vivo [17] = settings: Sprague-Dawley, rat, plasma, po, 10 mg/kg; remark: listed apart in the source
in vitro = settings: human, Caco-2
[18] = Half life in Sprague-Dawley rat plasma at 1 mg/kg, iv administered as single bolus dose by LC-MS/MS analysis; format: ADME, organism-based

For `N[C@@H]1CCC=C(c2ccc(F)cc2)[C@H]1COc1cc(F)c(S(=O)(=O)Nc2cscn2)cc1Cl`, the Vd (in vivo [1]) was 8.9 L/kg, the Tmax (in vivo [2]) was 1.7 h and the clearance (in vivo [3]) was 2.35 L/h/kg. The half-life (in vivo [4]) was 3.6 h, the AUC(0-t) (in vivo [5]) was 250 nM·h and the Kp [6] was 0.26. For the same compound, the bioavailability (in vivo [7]) was 18.4% and the AUC(0-t) (in vivo [8]) was 340 nM·h.

In the case of `O=S(=O)(Nc1cscn1)c1cc(Cl)c(OC[C@H]2NCCC=C2c2ccc(F)cc2)cc1F`, the “Cp(f)” value (Plasma [9]) is reported as 0.41 µM and the concentration (Plasma [10]) is reported as 82.1 µM.

Work on `O=S(=O)(Nc1cscn1)c1cc(Cl)c(OCC2NCCC=C2c2ccc(F)cc2)cc1F` (stereo unspecified) yielded a Vd [11] of 0.6 L/kg, an AUC(0-t) [12] of 3560 nM·h and an AUC(0-t) (in vivo [13]) of 41800 nM·h. It also gave a Kp [14] of 0.017, a clearance [15] of 0.27 L/h/kg and a Tmax (in vivo [16]) of 3.8 h. It also gave a bioavailability (in vivo [17]) of 64.8%, a Papp A→B (in vitro) of 32 nm/s and a half-life [18] of 2.7 h.

In the case of `Nc1[nH]ncc1-c1cc(Cl)ccc1Oc1cc(F)c(S(=O)(=O)Nc2cscn2)cc1Cl` [PF-05089771], the “Cp(f)” value (Plasma [9]) is reported as 0.279 µM and the concentration (Plasma [10]) is reported as 55.8 µM.
